Values quoted from earlier work as cited in patent publication US9072783B2, “Highly dispersible powders, compositions and methods for preparation” (Aridis Pharmaceuticals, priority 2009, dated 2015).

Conditions: of the amino acid itself (Table 3)

Row | SMILES | Hydropathy Index
1 | N[C@@H](CC(=O)O)C(=O)O [Aspartic Acid, aspartic acid] | −3.5
2 | N[C@@H](Cc1ccc(O)cc1)C(=O)O [Tyrosine, tyrosine] | −1.3
